Measured values published in PubChem BioAssay AID330 (DTP/NCI, 2004).
Values joined by “and” are separate entries in the source; they are usually repeats but may differ in a detail not shown here. Equal values may be shown once. Inconclusive results and toxic doses are left out. The calls were made as follows: active = survival T/C of 150% or more; inactive = T/C below 125% in these data.

Tested on: P388 leukemia ip, CD2F1 mice, survival T/C
Assay: NCI In Vivo Anticancer Drug Screen. Data for tumor model P388 Leukemia (intraperitoneal) in CD2F1 (CDF1) mice
Settings: endpoint: median survival time, higher = longer survival
Procedure, shortened: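 Mice carrying the transplanted tumor received test compound or vehicle. Survival was recorded in each group, and the value is the treated-group measurement divided by that of the vehicle-treated control group.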

[1] = dose: 200.0 mg/kg/injection, schedule: Q01DX005 (ip), vehicle: saline with Tween-80
[2] = dose: 100.0 mg/kg/injection, schedule: Q04DX002 (ip), vehicle: saline with Tween-80
[3] = dose: 200.0 mg/kg/injection, schedule: Q04DX002 (ip), vehicle: saline with Tween-80
[4] = dose: 400.0 mg/kg/injection, schedule: Q04DX002 (ip), vehicle: saline with Tween-80
[5] = dose: 6.25 mg/kg/injection, schedule: Q01DX009 (ip), vehicle: saline with Tween-80
[6] = dose: 12.5 mg/kg/injection, schedule: Q01DX009 (ip), vehicle: saline with Tween-80
[7] = dose: 25.0 mg/kg/injection, schedule: Q01DX009 (ip), vehicle: saline with Tween-80
[8] = dose: 50.0 mg/kg/injection, schedule: Q01DX009 (ip), vehicle: saline with Tween-80
[9] = dose: 100.0 mg/kg/injection, schedule: Q01DX009 (ip), vehicle: saline with Tween-80
[10] = dose: 200.0 mg/kg/injection, schedule: Q01DX009 (ip), vehicle: saline with Tween-80
[11] = dose: 100.0 mg/kg/injection, schedule: Q04DX003 (ip), vehicle: saline with Tween-80
[12] = dose: 200.0 mg/kg/injection, schedule: Q04DX003 (ip), vehicle: saline with Tween-80
[13] = dose: 400.0 mg/kg/injection, schedule: Q04DX003 (ip), vehicle: saline with Tween-80

Measured: T/C

O=C(Nc1ccc2c(c1)Cc1ccccc1-2)c1cccc2ccccc12
inactive: dose: 0.75 mg/kg/injection, schedule: Q01DX005 (ip), vehicle: saline with Tween-80 96 % of control | dose: 1.5 mg/kg/injection, schedule: Q01DX005 (ip), vehicle: saline with Tween-80 96 % of control | dose: 3.0 mg/kg/injection, schedule: Q01DX005 (ip), vehicle: saline with Tween-80 89 % of control | [1] 90 % of control

COC1NC(=O)Oc2c(F)cccc21 (centres undefined)
inactive: dose: 12.5 mg/kg/injection, schedule: Q01DX009 (ip), vehicle: Klucel (hydroxypropylcellulose) (HPC) 100 % of control | dose: 25.0 mg/kg/injection, schedule: Q01DX009 (ip), vehicle: Klucel (hydroxypropylcellulose) (HPC) 95 % of control | dose: 50.0 mg/kg/injection, schedule: Q01DX009 (ip), vehicle: Klucel (hydroxypropylcellulose) (HPC) 99 % of control | dose: 100.0 mg/kg/injection, schedule: Q01DX009 (ip), vehicle: Klucel (hydroxypropylcellulose) (HPC) 95 % of control | dose: 200.0 mg/kg/injection, schedule: Q01DX009 (ip), vehicle: Klucel (hydroxypropylcellulose) (HPC) 104 % of control

O=C1c2ccccc2C(=O)N1/N=C/c1cccc(Cl)c1
inactive: [2] 100 % of control | [3] 93 % of control | [4] 89 % of control

Cc1ccccc1N=Nc1c(O)n(-c2ccc(Cl)cc2)c(=S)n(-c2ccc(Br)cc2)c1=O
inactive: [2] 96 % of control | [3] 105 % of control | [4] 91 % of control

CCCCNCC(=O)Nc1cc(NC(=O)CNCCCC)c(C)c(NC(=O)CNCCCC)c1
inactive: dose: 50.0 mg/kg/injection, schedule: Q01DX005 (ip), vehicle: saline with Tween-80 100 % of control | dose: 100.0 mg/kg/injection, schedule: Q01DX005 (ip), vehicle: saline with Tween-80 104 % of control | [1] 100 % of control

O=C(O)c1cc2cc([N+](=O)[O-])ccc2[se]1
inactive: dose: 12.5 mg/kg/injection, schedule: Q01DX009 (ip), vehicle: suspension in saline 100 % of control | dose: 25.0 mg/kg/injection, schedule: Q01DX009 (ip), vehicle: suspension in saline 101 % of control | dose: 50.0 mg/kg/injection, schedule: Q01DX009 (ip), vehicle: saline 86 % of control | dose: 50.0 mg/kg/injection, schedule: Q01DX009 (ip), vehicle: suspension in saline 102 % of control | dose: 200.0 mg/kg/injection, schedule: Q01DX009 (ip), vehicle: saline 100 % of control

CC(C)CCSC1=CC(=O)c2ccccc2C1=O
inactive: dose: 3.13 mg/kg/injection, schedule: Q01DX009 (ip), vehicle: saline with Tween-80 99 % of control | [5] 109 % of control | [6] 109 % of control | [7] 114 % of control

N=C(N)c1ccc2[nH]c(/C=C/c3cc4cc(C(=N)N)ccc4o3)cc2c1
active: dose: 25.0 mg/kg/injection, schedule: Q04DX003 (ip), vehicle: suspension in saline 163 % of control | dose: 50.0 mg/kg/injection, schedule: Q04DX003 (ip), vehicle: suspension in saline 160 % of control | dose: 100.0 mg/kg/injection, schedule: Q04DX003 (ip), vehicle: suspension in saline 163 % of control

CC1(CC(C)(C)C2CCCCC2)OCCO1
inactive: dose: 6.25 mg/kg/injection, schedule: Q01DX009 (ip), vehicle: water 104 % of control | dose: 12.5 mg/kg/injection, schedule: Q01DX009 (ip), vehicle: water 108 % of control | dose: 25.0 mg/kg/injection, schedule: Q01DX009 (ip), vehicle: water 107 % of control | dose: 50.0 mg/kg/injection, schedule: Q01DX009 (ip), vehicle: water 109 % of control | dose: 100.0 mg/kg/injection, schedule: Q01DX009 (ip), vehicle: water 90 % of control

CC(C)(C)OC(=O)NN=C1CCC(C(C)(C)C)CC1 (centres undefined)
inactive: dose: 25.0 mg/kg/injection, schedule: Q04DX003 (ip), vehicle: Klucel (hydroxypropylcellulose) (HPC) 100 % of control | dose: 50.0 mg/kg/injection, schedule: Q04DX003 (ip), vehicle: Klucel (hydroxypropylcellulose) (HPC) 95 % of control | dose: 100.0 mg/kg/injection, schedule: Q04DX003 (ip), vehicle: Klucel (hydroxypropylcellulose) (HPC) 100 % of control

N#CC1=C(N)CCC1
inactive: [5] 100 % of control | [6] 95 % of control

CCc1ccc2c(c1)C(O)(c1ccccc1)c1ccccc1C2(O)c1ccccc1 (centres undefined)
inactive: [8] 95 % of control | [9] 94 % of control | [10] 93 % of control

NC(=O)CC[n+]1cccc(C(=O)O)c1
inactive: dose: 100.0 mg/kg/injection, schedule: Q04DX003 (ip), vehicle: saline 100 % of control | dose: 200.0 mg/kg/injection, schedule: Q04DX003 (ip), vehicle: saline 95 % of control | dose: 400.0 mg/kg/injection, schedule: Q04DX003 (ip), vehicle: saline 95 % of control

O=c1c2cc3c(cc2c2cccc4c2n1CC4)OCO3
inactive: dose: 25.0 mg/kg/injection, schedule: Q01DX009 (ip), vehicle: other 96 % of control | dose: 50.0 mg/kg/injection, schedule: Q01DX009 (ip), vehicle: other 100 % of control | dose: 100.0 mg/kg/injection, schedule: Q01DX009 (ip), vehicle: other 86 % of control | dose: 200.0 mg/kg/injection, schedule: Q01DX009 (ip), vehicle: other 89 % of control | dose: 400.0 mg/kg/injection, schedule: Q01DX009 (ip), vehicle: other 91 % of control

C1CC[N-]CC1.CC(=N\O)/C(C)=N/O.CC(=N\O)/C(C)=N/O.N#C[CH-]CC#N.[Co+2]
inactive: [6] 91 % of control | [7] 96 % of control | [8] 97 % of control | [9] 92 % of control

CC(=O)OCC1C(=O)OCC1C(=O)N1Cc2cc3ccccc3nc2C1 (centres undefined)
inactive: [5] 100 % of control | dose: 8.0 mg/kg/injection, schedule: Q01DX009 (ip), vehicle: saline with Tween-80 104 % of control and 93 % of control and 97 % of control | [6] 113 % of control | dose: 16.0 mg/kg/injection, schedule: Q01DX009 (ip), vehicle: saline with Tween-80 105 % of control and 116 % of control and 98 % of control | [7] 105 % of control | dose: 32.0 mg/kg/injection, schedule: Q01DX009 (ip), vehicle: saline with Tween-80 113 % of control and 116 % of control and 97 % of control | [8] 105 % of control | dose: 64.0 mg/kg/injection, schedule: Q01DX009 (ip), vehicle: saline with Tween-80 99 % of control and 105 % of control | dose: 128.0 mg/kg/injection, schedule: Q01DX009 (ip), vehicle: saline with Tween-80 100 % of control and 106 % of control and 108 % of control

C=C(C)c1c2ccccc2cc2cccc(Sc3ccccc3)c12
inactive: [11] 90 % of control | [12] 90 % of control | [13] 90 % of control

O=c1[nH]cc(CN(CCO)CCO)c(=O)[nH]1
inactive: dose: 50.0 mg/kg/injection, schedule: Q01DX005 (ip), vehicle: saline 106 % of control | dose: 100.0 mg/kg/injection, schedule: Q01DX005 (ip), vehicle: saline 105 % of control | dose: 200.0 mg/kg/injection, schedule: Q01DX005 (ip), vehicle: saline 99 % of control

COc1ccc(-c2ccc(OC)c(OC)c2OC)c(N)c1
inactive: [11] 99 % of control and 110 % of control | [12] 104 % of control and 110 % of control | [13] 114 % of control and 115 % of control

O=C(Nc1ccc(C2=NCCN2)cc1)c1ccc(C(=O)Nc2ccc(C3=NCCN3)cc2)c(F)c1
active: [9] 181 % of control | [10] 250 % of control | dose: 264.0 mg/kg/injection, schedule: Q04DX003 (ip), vehicle: saline with Tween-80 200 % of control | dose: 400.0 mg/kg/injection, schedule: Q01DX009 (ip), vehicle: saline with Tween-80 272 % of control | [13] 245 % of control | dose: 600.0 mg/kg/injection, schedule: Q04DX003 (ip), vehicle: saline with Tween-80 259 % of control
inactive: dose: 12.5 mg/kg/injection, schedule: Q04DX003 (ip), vehicle: saline with Tween-80 109 % of control | dose: 25.0 mg/kg/injection, schedule: Q04DX003 (ip), vehicle: saline with Tween-80 122 % of control

c1ccc2cc(-c3cc(-c4cc(-c5ccc6ccccc6c5)on4)no3)ccc2c1
inactive: dose: 60.0 mg/kg/injection, schedule: Q01DX005 (ip), vehicle: Klucel + Tween-80 100 % of control | dose: 120.0 mg/kg/injection, schedule: Q01DX005 (ip), vehicle: Klucel + Tween-80 95 % of control | dose: 240.0 mg/kg/injection, schedule: Q01DX005 (ip), vehicle: Klucel + Tween-80 91 % of control
